Structures are written as SMILES.

Holding throughout (type): functional, cell-based
Assay [1] deals with SF-295. In words: Antiproliferative activity against human SF295 cells assessed as reduction in cell viability by Alamar blue assay.
Assay [2] relates to HCT-116. Put plainly: Antiproliferative activity against human HCT116 cells assessed as reduction in cell viability by Alamar blue assay. On the technique in general: The colour change of resazurin is a common sign of viable cells or microbes.
The subject of assay [3] is HeLa. Put plainly: Antiproliferative activity against human HeLa cells assessed as reduction in cell viability by Alamar blue assay.
For assay [4], the system named is MDA-MB-231. Put plainly: Antiproliferative activity against human MDA-MB-231 cells assessed as reduction in cell viability by Alamar blue assay.
The test system of assay [5] is MCF7. In words: Antiproliferative activity against human MCF7 cells assessed as reduction in cell viability by Alamar blue assay.

As for `CC(=O)N[C@H](C)[C@@H](O)[C@@H](C)[C@@H]1OC(=O)/C=C/C=C(C)\C=C\[C@]2(C)CCC=C[C@@H]2/C=C(C)/C=C/[C@H]1C`, the IC50 – broadly, the concentration at which inhibition is half-maximal – in assay [1] worked out at 63.5 nM; in assay [2], 94 nM; in assay [3], 75.4 nM.
On to `CC(=O)N[C@H](C)[C@@H](O)[C@@H](C)[C@@H]1NC(=O)/C=C/C=C(C)\C=C\[C@]2(C)CCC=C[C@@H]2/C=C(C)/C=C/[C@H]1C`, for which the IC50 amounted to 584 nM in assay [4]; 716 nM in assay [1]; 448 nM in assay [5]; 746 nM in assay [2]; 597 nM in assay [3].
